From ChEMBL document CHEMBL1124865, “Synthesis and biological evaluation of a series of parenteral 3'-quaternary ammonium cephalosporins” (J Med Chem, 1990) come the findings set out here.

What all share (format): functional
The subject of one assay is Streptococcus pneumoniae. Put plainly: Antibacterial activity against Streptococcus pneumoniae. The conditions noted are these: Streptococcus pneumoniae; read-out: MIC.
Assay [1] relates to Staphylococcus aureus. Put plainly: Antibacterial activity against penicillin G susceptible Staphylococcus aureus. The settings on record: Staphylococcus aureus; read-out: MIC.
Assay [2] relates to Escherichia coli. Put plainly: Antibacterial activity against Escherichia coli TEM. The conditions noted are these: Escherichia coli; read-out: MIC.
The subject of assay [3] is Enterobacter cloacae. Nature of the assay: Antibacterial activity against Enterobacter cloacae EB5. The settings on record: Enterobacter cloacae; read-out: MIC.
Assay [4] relates to Enterobacter cloacae. Nature of the assay: Antibacterial activity against Enterobacter cloacae 265A. The settings on record: Enterobacter cloacae; read-out: MIC.
The subject of another assay is Enterococcus faecium. Nature of the assay: Antibacterial activity against Enterococcus faecium. The conditions noted are these: Enterococcus faecium; read-out: MIC.
Assay [5] relates to Pseudomonas aeruginosa. Put plainly: Antibacterial activity against Pseudomonas aeruginosa X528.
Assay [6] relates to Pseudomonas aeruginosa. Nature of the assay: Antibacterial activity against Pseudomonas aeruginosa PS18. The settings on record: Pseudomonas aeruginosa; read-out: MIC.
Assay [7] concerns Klebsiella pneumoniae. Put plainly: Antibacterial activity against Klebsiella pneumoniae X26. The conditions noted are these: Klebsiella pneumoniae; read-out: MIC.
In assay [8] the test system is Escherichia coli. Put plainly: Antibacterial activity against Escherichia coli EC14. The conditions noted are these: Escherichia coli; read-out: MIC.
The subject of assay [9] is Klebsiella pneumoniae. Put plainly: microbe, parasite or virus in culture. The conditions noted are these: Klebsiella pneumoniae; read-out: MIC.
Description: Antibacterial activity against Klebsiella pneumoniae 1082E
The test system of a further assay is Serratia marcescens. Put plainly: Antibacterial activity against Serratia marcescens SE3. The settings on record: Serratia marcescens; read-out: MIC.
Another assay relates to Streptococcus pyogenes. Nature of the assay: Antibacterial activity against Streptococcus pyogenes. The conditions noted are these: Streptococcus pyogenes; read-out: MIC.
Assay [10] relates to Staphylococcus aureus. Put plainly: Antibacterial activity against penicillin G resistance Staphylococcus aureus. The settings on record: Staphylococcus aureus; read-out: MIC.
Where [11] appears, read: Pseudomonas aeruginosa, read-out: MIC.

≈ marks a conversion by molar mass, not a printed value.

Turning to `CO/N=C(\C(=O)N[C@@H]1C(=O)N2C(C(=O)[O-])=C(C[n+]3ccc4cnccc4c3)CS[C@H]12)c1csc(N)n1`, the MIC in the assay on Streptococcus pneumoniae was < 0.008 µg/mL; with Staphylococcus aureus [1], 1 µg/mL (≈ 1.9 µM); in the assay on Escherichia coli [2], < 0.008 µg/mL; in the assay with Enterobacter cloacae [3], 0.03 µg/mL (≈ 0.0571 µM); in the assay on Enterobacter cloacae [4] it was 2 µg/mL (≈ 3.81 µM); in the assay on Enterococcus faecium, 32 µg/mL (≈ 60.9 µM). In addition, the MIC was 2 µg/mL (≈ 3.81 µM) with Pseudomonas aeruginosa [5] (setting [11]); 2 µg/mL (≈ 3.81 µM) in the assay with Pseudomonas aeruginosa [6]; < 0.008 µg/mL in the assay on Klebsiella pneumoniae [7]; < 0.008 µg/mL in the assay on Escherichia coli [8]; 2 µg/mL (≈ 3.81 µM) in the assay on Klebsiella pneumoniae [9]; 0.03 µg/mL (≈ 0.0571 µM) with Serratia marcescens. In addition, the MIC in the assay with Streptococcus pyogenes is < 0.008 µg/mL; in the assay with Staphylococcus aureus [10], 1 µg/mL (≈ 1.9 µM).
For `CCc1nc2c[n+](CC3=C(C(=O)[O-])N4C(=O)[C@@H](NC(=O)/C(=N\OC)c5csc(N)n5)[C@H]4SC3)ccc2s1`, the MIC stood at 0.008 µg/mL (≈ 0.0143 µM) with Streptococcus pneumoniae; 1 µg/mL (≈ 1.79 µM) with Staphylococcus aureus [1]; 0.015 µg/mL (≈ 0.0268 µM) with Escherichia coli [2]; 4 µg/mL (≈ 7.15 µM) with Enterobacter cloacae [4]; 128 µg/mL (≈ 229 µM) in the assay with Enterococcus faecium; 4 µg/mL (≈ 7.15 µM) in the assay with Pseudomonas aeruginosa [5] (setting [11]). Also, the MIC was 16 µg/mL (≈ 28.6 µM) in the assay on Pseudomonas aeruginosa [6]; 0.008 µg/mL (≈ 0.0143 µM) in the assay on Klebsiella pneumoniae [7]; 0.015 µg/mL (≈ 0.0268 µM) in the assay with Escherichia coli [8]; 2 µg/mL (≈ 3.57 µM) with Klebsiella pneumoniae [9]; 0.008 µg/mL (≈ 0.0143 µM) in the assay on Streptococcus pyogenes; 4 µg/mL (≈ 7.15 µM) with Staphylococcus aureus [10].
For the compound `CO/N=C(\C(=O)N[C@@H]1C(=O)N2C(C(=O)[O-])=C(C[n+]3csc4c3CCCC4)CS[C@H]12)c1csc(N)n1`, the MIC came to 0.03 µg/mL (≈ 0.0561 µM) with Streptococcus pneumoniae; 1 µg/mL (≈ 1.87 µM) in the assay with Staphylococcus aureus [1]; 0.03 µg/mL (≈ 0.0561 µM) in the assay with Escherichia coli [2]; 0.125 µg/mL (≈ 0.234 µM) with Enterobacter cloacae [3]; 1 µg/mL (≈ 1.87 µM) with Enterobacter cloacae [4]; 16 µg/mL (≈ 29.9 µM) with Enterococcus faecium. Moreover, the MIC worked out at 4 µg/mL (≈ 7.48 µM) in the assay with Pseudomonas aeruginosa [5] (setting [11]); 16 µg/mL (≈ 29.9 µM) in the assay with Pseudomonas aeruginosa [6]; 0.03 µg/mL (≈ 0.0561 µM) with Klebsiella pneumoniae [7]; 0.06 µg/mL (≈ 0.112 µM) in the assay on Escherichia coli [8]; 2 µg/mL (≈ 3.74 µM) with Klebsiella pneumoniae [9]; 0.125 µg/mL (≈ 0.234 µM) with Serratia marcescens. The MIC is 0.03 µg/mL (≈ 0.0561 µM) with Streptococcus pyogenes and 2 µg/mL (≈ 3.74 µM) in the assay on Staphylococcus aureus [10].
With `CO/N=C(\C(=O)N[C@@H]1C(=O)N2C(C(=O)[O-])=C(C[n+]3ccc4oc(C)nc4c3)CS[C@H]12)c1csc(N)n1`, the MIC with Streptococcus pneumoniae was determined as 0.015 µg/mL (≈ 0.0283 µM); in the assay on Staphylococcus aureus [1], 1 µg/mL (≈ 1.89 µM); in the assay on Enterobacter cloacae [4], 8 µg/mL (≈ 15.1 µM); in the assay with Enterococcus faecium, 128 µg/mL (≈ 242 µM); in the assay with Pseudomonas aeruginosa [5] (setting [11]) it was 4 µg/mL (≈ 7.55 µM); in the assay on Pseudomonas aeruginosa [6], 8 µg/mL (≈ 15.1 µM). In addition, the MIC came to 0.015 µg/mL (≈ 0.0283 µM) with Klebsiella pneumoniae [7], 4 µg/mL (≈ 7.55 µM) with Klebsiella pneumoniae [9], 0.015 µg/mL (≈ 0.0283 µM) in the assay on Streptococcus pyogenes and 8 µg/mL (≈ 15.1 µM) in the assay on Staphylococcus aureus [10].
With `CO/N=C(\C(=O)N[C@@H]1C(=O)N2C(C(=O)[O-])=C(C[n+]3ccc4[nH]c(-c5ccccc5)nc4c3)CS[C@H]12)c1csc(N)n1`, the MIC in the assay on Streptococcus pneumoniae amounted to 0.008 µg/mL (≈ 0.0135 µM); in the assay with Staphylococcus aureus [1], 2 µg/mL (≈ 3.39 µM); with Enterobacter cloacae [3], 0.5 µg/mL (≈ 0.847 µM); in the assay with Enterococcus faecium, 128 µg/mL (≈ 217 µM); in the assay on Pseudomonas aeruginosa [6], 128 µg/mL (≈ 217 µM); with Klebsiella pneumoniae [7], 0.015 µg/mL (≈ 0.0254 µM). Also, the MIC came to 2 µg/mL (≈ 3.39 µM) in the assay on Klebsiella pneumoniae [9], 1 µg/mL (≈ 1.69 µM) in the assay on Serratia marcescens, 0.008 µg/mL (≈ 0.0135 µM) in the assay with Streptococcus pyogenes and 8 µg/mL (≈ 13.5 µM) in the assay on Staphylococcus aureus [10].
For the compound `CO/N=C(\C(=O)N[C@@H]1C(=O)N2C(C(=O)O)=C(COC(C)=O)CS[C@H]12)c1csc(N)n1` [CEFOTAXIME], the MIC was 0.015 µg/mL (≈ 0.0329 µM) in the assay on Streptococcus pneumoniae; 2 µg/mL (≈ 4.39 µM) in the assay on Staphylococcus aureus [1]; 0.03 µg/mL (≈ 0.0659 µM) with Escherichia coli [2]; 0.25 µg/mL (≈ 0.549 µM) with Enterobacter cloacae [3]; 32 µg/mL (≈ 70.3 µM) with Enterobacter cloacae [4]; > 128 µg/mL in the assay on Enterococcus faecium. For the same compound, the MIC in the assay with Pseudomonas aeruginosa [5] (setting [11]) stood at 32 µg/mL (≈ 70.3 µM); in the assay with Pseudomonas aeruginosa [6] it was 64 µg/mL (≈ 141 µM); in the assay with Klebsiella pneumoniae [7] it was 0.008 µg/mL (≈ 0.0176 µM); in the assay with Escherichia coli [8], 0.03 µg/mL (≈ 0.0659 µM); in the assay on Klebsiella pneumoniae [9], 1 µg/mL (≈ 2.2 µM); in the assay with Serratia marcescens, 0.25 µg/mL (≈ 0.549 µM). For the same compound, the results for the MIC in the assay on Streptococcus pyogenes and in the assay with Staphylococcus aureus [10] were 0.015 µg/mL (≈ 0.0329 µM) and 16 µg/mL (≈ 35.1 µM), respectively.
Consider `CO/N=C(\C(=O)N[C@@H]1C(=O)N2C(C(=O)[O-])=C(C[n+]3ccc4nc(C(C)(C)C)sc4c3)CS[C@H]12)c1csc(N)n1`, for which the MIC came to 0.015 µg/mL (≈ 0.0255 µM) in the assay on Streptococcus pneumoniae; 1 µg/mL (≈ 1.7 µM) in the assay with Staphylococcus aureus [1]; 1 µg/mL (≈ 1.7 µM) in the assay with Enterobacter cloacae [3]; 16 µg/mL (≈ 27.2 µM) in the assay on Enterobacter cloacae [4]; 128 µg/mL (≈ 218 µM) in the assay with Enterococcus faecium; 128 µg/mL (≈ 218 µM) with Pseudomonas aeruginosa [6]. The MIC came to 4 µg/mL (≈ 6.81 µM) with Klebsiella pneumoniae [9], 2 µg/mL (≈ 3.4 µM) with Serratia marcescens, 0.015 µg/mL (≈ 0.0255 µM) with Streptococcus pyogenes and 4 µg/mL (≈ 6.81 µM) in the assay with Staphylococcus aureus [10].
With `CO/N=C(\C(=O)N[C@@H]1C(=O)N2C(C(=O)[O-])=C(C[n+]3ccc(CC(=O)NO)cc3)CS[C@H]12)c1csc(N)n1` (stereo in doubt; 19), in the assay on Pseudomonas aeruginosa [5], the MIC came to 2 µg/mL (≈ 3.65 µM).
Turning to `CO/N=C(\C(=O)N[C@@H]1C(=O)N2C(C(=O)[O-])=C(C[n+]3ccc4[nH]cnc4c3)CS[C@H]12)c1csc(N)n1`, the MIC with Streptococcus pneumoniae was determined as 0.008 µg/mL (≈ 0.0155 µM); with Staphylococcus aureus [1] it was 2 µg/mL (≈ 3.89 µM); with Escherichia coli [2], 0.008 µg/mL (≈ 0.0155 µM); in the assay on Enterobacter cloacae [4], 8 µg/mL (≈ 15.5 µM); in the assay with Pseudomonas aeruginosa [5] (setting [11]), 2 µg/mL (≈ 3.89 µM); in the assay with Pseudomonas aeruginosa [6], 8 µg/mL (≈ 15.5 µM). The MIC in the assay with Klebsiella pneumoniae [7] was determined as 0.008 µg/mL (≈ 0.0155 µM); in the assay on Escherichia coli [8], 0.008 µg/mL (≈ 0.0155 µM); in the assay with Klebsiella pneumoniae [9] it was 8 µg/mL (≈ 15.5 µM); in the assay with Serratia marcescens, 0.125 µg/mL (≈ 0.243 µM); with Streptococcus pyogenes, 0.008 µg/mL (≈ 0.0155 µM); with Staphylococcus aureus [10], 2 µg/mL (≈ 3.89 µM).
